From US5496843A, “Tricyclic indole-2-carboxylic acid derivatives” (Sumitomo Pharmaceuticals Company, Limited, priority 1993, dated 1996)

How the values were obtained:
[1] = system: strychnine-insensitive glycine modulatory site of NMDA (N-methyl D-aspartate) receptors; assay: [3H] glycine binding studies; conditions: 10 ng/mL test compound; 10 nM [3H] glycine; rat brain synaptic membrane preparation
Method: (§1) The activities of the compounds were measured by [^3 H] DCKA and [^3 H] glycine binding inhibition studies as illustrated below. [^3 H] glycine binding studies
(§2) A crude rat brain synaptic membrane preparation was washed three times by centrifugation at 50,000×g for 30 min with 50 mM tris acetate (pH 7.4). The pellets obtained were suspended in 0.23M sucrose solution and stored at -80° C. For binding studies, the frozen suspension was thawed, treated with 0.08% triton X-100 at 2° C. for 10 min, and washed twice by the centrifugation as mentioned above. The synaptic membrane thus prepared (ca. 150~200 μg of protein) was incubated with 10 nM [^3 H] glycine (1.11 TBq/mmol) and the test compound (10 ng/mL~0.1 ng/mL) at 2° C. for 10 min in 50 mM tris acetate (pH 7.4). The incubation was terminated by suction filtration using Whatman GF/B glass filter. The radioactivity bound to the membrane on the filter was measured by scintillation counting. Non-specific binding was calculated by the radioactivity measured under the incubations in the presence of 0.1 mM D-serine. The [3H] glycine binding was not inhibited by addition of 0.1 mM strychnine.

[2] = system: NMDA-induced tonic seizures; assay: NMDA-induced seizure model; assay type: in vivo; conditions: 30 mg/kg, i.p., 30 min before NMDA (5 nmol) i.c.v.; mice
Method: The compounds of the present invention attenuated strongly NMDA-induced seizure under systemic administration in the following in vivo model. NMDA-induced seizure model Thirty min later following intraperitoneal administration of the test compound (0.3~30 mg/kg) into each of ten mice tested, NMDA (5 nmol) was administered intracerebroventricularly (i.c.v.).

[3] = system: strychnine-insensitive glycine modulatory site of NMDA (N-methyl D-aspartate) receptors; assay: [3H] DCKA binding studies; conditions: 10 ng/mL test compound; 10 nM [3H] DCKA; rat brain synaptic membrane preparation
Method: as §1
[^3 H] DCKA binding studies
as §2, with “100” for “150~200”, “(DCKA) (603 GBq/mmol)” for “glycine (1.11 TBq/mmol)”, “ng/mL~0.1ng/mL)” for “ng/mL~0.1 ng/mL)”, “glycine. […] DCKA binding.” for “D-serine. The [3H] glycine binding was not inhibited by addition of 0.1 mM strychnine.”

inhibition of the [3H] glycine binding [1]: 69%
inhibition of the [3H] DCKA binding [3]: 94%
Compound: Cl.NCc1ccc(NC(=O)CC2CCc3cc(Cl)cc4[nH]c(C(=O)O)c2c34)c(CC(=O)O)c1 (stereo not drawn) [Example 5, 7-Chloro-3-[p-aminomethyl-o-(carboxymethyl)phenylcarbamoylmethyl]-1,3,4,5-tetrahydrobenz[cd]indole-2-carboxylic acid hydrochloride]
protection from tonic seizures [2]: 90%
